Read-outs that look alike come from different tables or passages of the source.
System: FLU A (PR/8/34)
Experiment: Flu A Neuraminidase Antiviral Assay
Type: cell-based

Row | Structure (SMILES) | EC50 [nM] | EC50 (MDCK, 48 h) [nM]
1 | CN1C(=O)c2c(O)c(=O)ccn2N2C(c3cc(F)ccc3OC(F)F)CCCC12 (single isomer, unassigned) [Compound 17A, 1-(2-(difluoromethoxy)-5-fluorophenyl)-7-hydroxy-5-methyl-1,2,3,4,4a,5-hexahydrodipyrido[1,2-b:2′,1′-f][1,2,4]triazine-6,8-dione] | 3510 | 
2 | CN1C(=O)c2c(O)c(=O)ccn2N2C(c3ccccc3)C(CCC(F)(F)F)CCC12 (single isomer, unassigned) [Compound 128B, 7-hydroxy-5-methyl-1-phenyl-2-(3,3,3-trifluoropropyl)-1,2,3,4,4a,5-hexahydrodipyrido[1,2-b:2′,1′-f][1,2,4]triazine-6,8-dione] | 1.5 | 
3 | Cc1ccccc1C1C(CCC(F)(F)F)CCC2N(C)C(=O)c3c(O)c(=O)ccn3N12 (single isomer, unassigned) [Compound 95B, 7-hydroxy-5-methyl-1-(o-tolyl)-2-(3,3,3-trifluoropropyl)-1,2,3,4,4a,5-hexahydrodipyrido[1,2-b:2′,1′-f][1,2,4]triazine-6,8-dione] | 7.5 | 
4 | CC1(c2ccccc2)CCCC2N(CCC(F)(F)F)C(=O)c3c(O)c(=O)ccn3N21 (single isomer, unassigned) [Compound 38A, 7-hydroxy-1-methyl-1-phenyl-5-(3,3,3-trifluoropropyl)-1,2,3,4,4a,5-hexahydrodipyrido[1,2-b:2′,1′-f][1,2,4]triazine-6,8-dione] | > 8100 | 
5 | CN1C(=O)c2c(O)c(=O)c(-c3nnn[nH]3)cn2N2C(c3ccccc3)C(CC(F)(F)F)CCC12 (centres unmarked) [Compound 134, 7-hydroxy-5-methyl-1-phenyl-9-(1H-tetrazol-5-yl)-2-(2,2,2-trifluoroethyl)-1,2,3,4,4a,5-hexahydrodipyrido[1,2-b:2′,1′-f][1,2,4]triazine-6,8-dione] |  | 453
6 | CN1C(=O)c2c(O)c(=O)ccn2N2C(c3ccccc3)C(CC3CC3(F)F)CCC12 (single isomer, unassigned) [Compound 114B, 2-((2,2-difluorocyclopropyl)methyl)-7-hydroxy-5-methyl-1-phenyl-1,2,3,4,4a,5-hexahydrodipyrido[1,2-b:2′,1′-f][1,2,4]triazine-6,8-dione] | > 8100 | 
7 | CN1C(=O)c2c(O)c(=O)ccn2N2C(c3ccccc3)C(CC3CC3(F)F)CCC12 (single isomer, unassigned) [Compound 114D, 2-((2,2-difluorocyclopropyl)methyl)-7-hydroxy-5-methyl-1-phenyl-1,2,3,4,4a,5-hexahydrodipyrido[1,2-b:2′,1′-f][1,2,4]triazine-6,8-dione] | 2.3 | 
8 | CN1C(=O)c2c(O)c(=O)ccn2N2C1CCCC21CCc2ccccc21 (single isomer, unassigned) [Compound 21C, 7-hydroxy-5-methyl-2′,3,3′,4,4a,5-hexahydro-2H-spiro[dipyrido[1,2-b:2′,1′-f][1,2,4]triazine-1,1′-indene]-6,8-dione] | 1600 | 
9 | Cc1ccccc1C1C(CC(F)(F)F)CC(C)C2N(C)C(=O)c3c(O)c(=O)ccn3N12 (single isomer, unassigned) [Compound 79B, 7-hydroxy-4,5-dimethyl-1-(o-tolyl)-2-(2,2,2-trifluoroethyl)-1,2,3,4,4a,5-hexahydrodipyrido[1,2-b:2′,1′-f][1,2,4]triazine-6,8-dione] | 2.3 | 
10 | CN1C(=O)c2c(O)c(=O)ccn2N2C(c3ccccc3)C3CCC(C3)C12 (single isomer, unassigned) [Compound 9C, 4-hydroxy-6-methyl-11-phenyl-6a,7,8,9,10,11-hexahydro-3H-7,10-methanopyrido[1′,2′:1,6][1,2,4]triazino[2,3-a]azepine-3,5(6H)-dione] | > 8100 | 
11 | CCC1(c2ccccc2)CCCC2N(C)C(=O)c3c(O)c(=O)ccn3N21 (single isomer, unassigned) [Compound 22D, 1-ethyl-7-hydroxy-5-methyl-1-phenyl-1,2,3,4,4a,5-hexahydrodipyrido[1,2-b:2′,1′-f][1,2,4]triazine-6,8-dione] | 11 | 
12 | CN1C(=O)c2c(O)c(=O)ccn2N2C(c3ccccc3)CCCC12C (single isomer, unassigned) [Compound 59A, 7-hydroxy-4a,5-dimethyl-1-phenyl-1,2,3,4,4a,5-hexahydrodipyrido[1,2-b:2′,1′-f][1,2,4]triazine-6,8-dione] | 7280 | 
13 | CN1C(=O)c2c(O)c(=O)ccn2N2C(c3ccccc3)C(CCC(F)F)CCC12 (single isomer, unassigned) [Compound 124B, 2-(3,3-difluoropropyl)-7-hydroxy-5-methyl-1-phenyl-1,2,3,4,4a,5-hexahydrodipyrido[1,2-b:2′,1′-f][1,2,4]triazine-6,8-dione] | 1.6 | 
14 | CN1C(=O)c2c(O)c(=O)ccn2N2C(c3ccccc3)C3CCC(C3)C12 (single isomer, unassigned) [Compound 9A, 4-hydroxy-6-methyl-11-phenyl-6a,7,8,9,10,11-hexahydro-3H-7,10-methanopyrido[1′,2′:1,6][1,2,4]triazino[2,3-a]azepine-3,5(6H)-dione] | 6210 | 
15 | CN1C(=O)c2c(O)c(=O)ccn2N2[C@H](c3ccccc3)[C@@H](N=[N+]=[N-])CC[C@@H]12 [Compound 139, (1R,2S,4aS)-2-azido-7-hydroxy-5-methyl-1-phenyl-1,2,3,4,4a,5-hexahydrodipyrido[1,2-b:2′,1′-f][1,2,4]triazine-6,8-dione] |  | 23.6
16 | CN1C(=O)c2c(O)c(=O)ccn2N2C(c3ccccc3)C(CC(F)(F)F)CCC12C (single isomer, unassigned) [Compound 111A, 7-hydroxy-4a,5-dimethyl-1-phenyl-2-(2,2,2-trifluoroethyl)-1,2,3,4,4a,5-hexahydrodipyrido[1,2-b:2′,1′-f][1,2,4]triazine-6,8-dione] | > 8100 | 
17 | CC1(c2ccccc2)CCCC2N(CC3CC4(CCC4)C3)C(=O)c3c(O)c(=O)ccn3N21 (single isomer, unassigned) [Compound 42B, 7-hydroxy-1-methyl-1-phenyl-5-(spiro[3.3]heptan-2-ylmethyl)-1,2,3,4,4a,5-hexahydrodipyrido[1,2-b:2′,1′-f][1,2,4]triazine-6,8-dione] | 49.5 | 
18 | CC1(c2ncc(F)cc2F)CCCC2N(CC(F)F)C(=O)c3c(O)c(=O)ccn3N21 (single isomer, unassigned) [Compound 47A, 5-(2,2-difluoroethyl)-1-(3,5-difluoropyridin-2-yl)-7-hydroxy-1-methyl-1,2,3,4,4a,5-hexahydrodipyrido[1,2-b:2′,1′-f][1,2,4]triazine-6,8-dione] | 25.7 | 
19 | CN1C(=O)c2c(O)c(=O)ccn2N2C1CCCC2(C)c1cccc(F)c1 (single isomer, unassigned) [Compound 25B, 1-(3-fluorophenyl)-7-hydroxy-1,5-dimethyl-1,2,3,4,4a,5-hexahydrodipyrido[1,2-b:2′,1′-f][1,2,4]triazine-6,8-dione] | 70.7 | 
20 | CCN1C(=O)c2c(O)c(=O)ccn2N2C(c3ccccc3)C(c3ccc(F)c(F)c3)CCC12 (single isomer, unassigned) [Compound 94A, 2-(3,4-difluorophenyl)-5-ethyl-7-hydroxy-1-phenyl-1,2,3,4,4a,5-hexahydrodipyrido[1,2-b:2′,1′-f][1,2,4]triazine-6,8-dione] | 397 | 

Source: patent publication US20240018145A1, “[…]-DEPENDENT EN[…] TREATING OR […]” (priority 2020, published 2024)
